According to patent publication US20250099433A1, “COMPOSITION AND METHOD FOR TREATMENT OF GRAM NEGATIVE BACTERIAL INFECTION” (The Research Foundation for the State University of New York, priority 2021, published 2025):
≈ marks a conversion by molar mass, not a printed value. Where “and” joins values, the source holds several entries; their conditions need not be identical. Equal values may be shown once.

What was measured:
P. aeruginosa PAO1 [1] = assay: MIC by microbroth dilution, P. aeruginosa PAO1; details: for MIC: Pseudomonas aeruginosa, PAO1, read-out: MIC (μM) (PAO1)
[2] = test system: efflux-pump mutant strain (ΔMexABCDXY) (paEP); assay: MIC by microbroth dilution, efflux-pump mutant P. aeruginosa; details: Pseudomonas aeruginosa, read-out: MIC (μM) (paEP)
From the text: Bacterial Strains. […] The efflux-pump deficient P. aeruginosa strain (ΔMexABCDXY), N150, was derived from PAO1.
Minimum Inhibitory Concentration (MIC) Measurements.

paLpxC [3] = target: T1, paLpxC (Pseudomonas aeruginosa (strain ATCC 15692 / DSM 22644 / CIP 104116 / JCM 14847 / LMG 12228 / 1C / PRS 101 / PAO1), UniProt P47205); assay: biochemical; format: binding; details: for Ki / tR (min) Fluorescence assay / residence time fold longer than 1: 37° C.; for Ki: fluorescence competition; for tR (min) Fluorescence assay: tR = 1/koff; for koff: read-out: Koff (s^−1); for kon: read-out: Kon (μM^−1s^−1); for residence time fold longer than 1: fluorescence assay
paLpxC [4] = target: T1, paLpxC; assay: Spin column (Penefsky) residence time assay on paLpxC; format: binding; details: 37° C.
Experimental: FIG. 14. Spin-column assay. A spin-column assay was used to quantify the residence time of inhibitors on paLpxC at 37° C. […] Samples were then subjected to size exclusion chromatography at different times using a Spin-Trap G-25 column (800×g for 2 min). […] Preincubated solutions of enzyme (10 μM) and inhibitor (10 or 20 μM) were diluted 200-fold into a solution of PT855 (1 μM) at 37° C. Aliquots of this solution were withdrawn at various times and subjected to centrifugal gel filtration chromatography using PD SpinTrap™ G-25 columns. The fluorescence of the eluate was quantified, and the data were fit to a single exponential equation to obtain koff (FIG. 14, Tables 4 and 5).
Inhibitor Residence Time Measurements using a Spin Column Assay. […] Subsequently, 10 μL of the incubation mixture was diluted into 2 mL of the same buffer containing 1 μM of PT855, and 100 μL of this mixture was then aliquoted at different time points and loaded onto a PD SpinTrap™ G-25 column (Cytiva) that had been equilibrated with buffer prior to sample loading. […] The fluorescence intensities corresponding to loading diluted EI without the fluorescent competitor and loading the competitor alone were measured separately to determine the dynamic range and endpoint of the assay. […] Rates were calculated by fitting the change in fluorescence intensity over time to a one-phase association equation in GraphPad Prism.

P. aeruginosa PAO1 [5] = assay: Post-antibiotic effect (PAE) in P. aeruginosa PAO1; details: PAO1, 4xMIC for 1 h, 37° C.
Experimental: Post-antibiotic effect of the paLpxC inhibitors on wild-type P. aeruginosa. […] The experimental data points are the mean values from triplicate, independent measurements, and the error bars represent the standard deviation from the mean.
After incubating the plates overnight at 37° C., CFUs were enumerated, and the PAE values were calculated using a standard method where the time for the bacteria to recover 1 log post drug washout compared to the control was determined (FIG. 17, Table 6).
Post-antibiotic Effect (PAE). PAEs were determined using P. aeruginosa PAO1. […] The compound was washed out by diluting the culture 1000-fold into fresh CAMH-II medium, and the regrowth of bacteria was monitored by taking 100 μL aliquots each hour and plating serial dilutions on Muller-Hinton agar plates.

T1 sequence (P47205 1-299): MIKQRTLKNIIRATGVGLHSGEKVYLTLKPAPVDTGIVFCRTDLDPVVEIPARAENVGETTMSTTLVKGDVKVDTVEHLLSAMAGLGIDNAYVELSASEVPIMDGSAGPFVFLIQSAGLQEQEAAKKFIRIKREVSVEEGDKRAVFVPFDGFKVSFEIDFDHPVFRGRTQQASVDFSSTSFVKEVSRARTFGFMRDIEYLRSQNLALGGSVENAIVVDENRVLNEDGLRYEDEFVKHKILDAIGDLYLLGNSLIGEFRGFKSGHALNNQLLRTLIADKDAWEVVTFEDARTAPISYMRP

Row | Compound | MIC (P. aeruginosa PAO1 [1]) [µM] | MIC [2] [µM] | Ki (paLpxC [3]) [pM] | tR (min) Fluorescence assay (paLpxC [3]) | koff (paLpxC [3]) [s⁻¹] | kon (paLpxC [3]) [µM⁻¹ s⁻¹] | tR (min) (Spin column assay) (paLpxC [4]; direct displacement) | k (min^−1), spin-column assay (paLpxC [4]; first-order fit) [min⁻¹] | PAE (h) 4x (P. aeruginosa PAO1 [5]) | residence time fold longer than 1 (paLpxC [3]) [fold] | MIC fold lower than that for PT810 (P. aeruginosa PAO1 [1]) [fold]
1 | COc1ccc(-c2ccn(CCC(C)(C(=O)NO)S(C)(=O)=O)c(=O)c2)cc1 (racemic) [PT902, N-hydroxy-4-(4-(4-methoxyphenyl)-2-oxopyridin-1(2H)-yl)-2-methyl-2-(methylsulfonyl)butanamide] | 3.12 (≈ 1.23 µg/mL) | 0.8 (≈ 0.316 µg/mL) | – | – | – | – | – | – | – | – | –
2 | CC(CCn1ccc(-c2ccc(CN3CCOCC3)cc2)cc1=O)(C(=O)NO)S(C)(=O)=O (racemic) [PT904, N-hydroxy-2-methyl-2-(methylsulfonyl)-4-(4-(4-(morpholinomethyl)phenyl)-2-oxopyridin-1(2H)-yl)butanamide] | 50 (≈ 23.2 µg/mL) | – | 96.8 ± 3 | 4.7 ± 0.2 min | 0.0035 ± 0.0001 | 36.4 ± 0.4 | – | – | – | – | –
3 | C=CCn1cc(-c2ccc(-c3ccn(CCC(C)(C(=O)NO)S(C)(=O)=O)c(=O)c3)cc2)nn1 (racemic) [PT907, 4-(4-(4-(1-allyl-1H-1,2,3-triazol-4-yl)phenyl)-2-oxopyridin-1(2H)-yl)-N-hydroxy-2-methyl-2-(methylsulfonyl)butanamide] | 12.5 (≈ 5.89 µg/mL) | 0.78 (≈ 0.368 µg/mL) | 6.1 ± 5.7 | 82.8 ± 26.0 min | 0.00022 ± 7e-05 | 52 ± 29.5 | 146.5 ± 44.0 | 0.007 ± 0.002 | – | – | –
4 | CC(CCn1ccc(-c2ccc(-c3cn(CC4CCCCC4)nn3)cc2)cc1=O)(C(=O)NO)S(C)(=O)=O (racemic) [PT910, 4-(4-(4-(1-(cyclohexylmethyl)-1H-1,2,3-triazol-4-yl)phenyl)-2-oxopyridin-1(2H)-yl)-N-hydroxy-2-methyl-2-(methylsulfonyl)butanamide] | 50 (≈ 26.4 µg/mL) | 3.12 (≈ 1.65 µg/mL) | 5.5 ± 3.4 | 100.2 ± 18.5 min | 0.00017 ± 3e-05 | 31 ± 3 | – | – | – | – | –
5 | CC1(Cn2cc(-c3ccc(-c4ccn(CCC(C)(C(=O)NO)S(C)(=O)=O)c(=O)c4)cc3)nn2)COC1 (racemic) [PT911, N-hydroxy-2-methyl-4-(4-(4-(1-((3-methyloxetan-3-yl)methyl)-1H-1,2,3-triazol-4-yl)phenyl)-2-oxopyridin-1(2H)-yl)-2-(methylsulfonyl)butanamide] | 25 (≈ 12.9 µg/mL) | 1.56 (≈ 0.804 µg/mL) | – | – | – | – | – | – | – | – | –
6 | CC(CCn1ccc(-c2ccc(-c3cn(CCO)nn3)cc2)cc1=O)(C(=O)NO)S(C)(=O)=O (racemic) [PT912, N-hydroxy-4-(4-(4-(1-(2-hydroxyethyl)-1H-1,2,3-triazol-4-yl)phenyl)-2-oxopyridin-1(2H)-yl)-2-methyl-2-(methylsulfonyl)butanamide] | > 50 | > 12.5 | 3.7 ± 2.3 | 92.3 ± 11.2 min | 0.00018 ± 2e-05 | 59.6 ± 22.9 | – | – | – | – | –
7 | CC(CCn1ccc(-c2ccc(-c3cn(CC45CC(C4)C5)nn3)cc2)cc1=O)(C(=O)NO)S(C)(=O)=O (racemic) [PT913, 4-(4-(4-(1-(bicyclo[1.1.1]pentan-1-ylmethyl)-1H-1,2,3-triazol-4-yl)phenyl)-2-oxopyridin-1(2H)-yl)-N-hydroxy-2-methyl-2-(methylsulfonyl)butanamide] | 12.5 (≈ 6.4 µg/mL) | 0.78 (≈ 0.399 µg/mL) | 2.1 ± 1.6 | 123.8 ± 37.2 min and 124.0 ± 37.2 min | 0.00015 ± 5e-05 | 85.2 ± 32.5 | – | – | 4 h and 4.0 ± 0.2 h | ~3 | –
8 | CC(CCn1ccc(-c2ccc(-c3cn(Cc4ccccn4)nn3)cc2)cc1=O)(C(=O)NO)S(C)(=O)=O (racemic) [PT914, N-hydroxy-2-methyl-2-(methylsulfonyl)-4-(2-oxo-4-(4-(1-(pyridin-2-ylmethyl)-1H-1,2,3-triazol-4-yl)phenyl)pyridin-1(2H)-yl)butanamide] | 6.25 (≈ 3.27 µg/mL) | 0.2 (≈ 0.105 µg/mL) | 5.5 ± 3.4 | 118.5 ± 44.0 min | 0.00016 ± 6e-05 | 37.2 ± 23 | – | – | – | ~3 | 2
9 | CC(CCn1ccc(-c2ccc(-c3cn(Cc4ccncc4)nn3)cc2)cc1=O)(C(=O)NO)S(C)(=O)=O (racemic) [PT915, N-hydroxy-2-methyl-2-(methylsulfonyl)-4-(2-oxo-4-(4-(1-(pyridin-4-ylmethyl)-1H-1,2,3-triazol-4-yl)phenyl)pyridin-1(2H)-yl)butanamide] | 50 (≈ 26.1 µg/mL) | 6.25 (≈ 3.27 µg/mL) | – | – | – | – | – | – | – | – | –
